Results taken from patent US20100167397A1, “ENDOCRINE CELL LINES AND METHOD OF USING THE SAME” (KYOWA HAKKO KOGYO CO., LTD., priority 2002, published 2010).
No end group written: not given here.

Key:
[1] = molecular target: T1, melanocortin receptor type 1 (MC1R) (Homo sapiens, UniProt Q01726); test: MC1R reporter assay in GBCR2 (pAGal9-MC1R), Renilla reniformis luciferase; format: cell-based; settings: GBCR2 with pAGal9-MC1R, 17β-estradiol 10 nmol/L 24 hours; various concentrations, 6 hours
T1 construct: expressed in transfected cells; host or cells: GBCR2 (Namalwa KJM-1 derived)
T1 sequence (Q01726 whole entry): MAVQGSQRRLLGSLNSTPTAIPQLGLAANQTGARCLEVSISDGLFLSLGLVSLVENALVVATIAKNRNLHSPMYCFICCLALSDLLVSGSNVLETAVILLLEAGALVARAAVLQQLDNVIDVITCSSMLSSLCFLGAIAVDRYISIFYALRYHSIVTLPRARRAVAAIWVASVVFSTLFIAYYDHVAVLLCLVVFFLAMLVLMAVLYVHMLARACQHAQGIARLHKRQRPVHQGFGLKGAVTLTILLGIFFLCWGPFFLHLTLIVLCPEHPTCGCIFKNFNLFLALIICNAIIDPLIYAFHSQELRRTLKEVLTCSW
Protocol: One of the plasmids was named pAGal9-MC1R. The nucleotide sequence was determined by the method mentioned in the above (2).
According to the method mentioned in (1) of Example 21, pAGal9-MC1R was transfected to GBCR2 to prepare stable transformants.

GPR43 = molecular target: T2, GPR43 (Homo sapiens, UniProt O15552); test: Screening ligands or agonists of GPR43 (pAGal9-GPR43 in GBCRC6, Renilla luciferase); format: cell-based; settings: 100 μmol/L; 6 hours
T2 construct: expressed in transfected cells; host or cells: GBCRC6 (Namalwa KJM-1 derived, co-expressing Gαs-q and Gαs-i)
T2 sequence (O15552 1-330): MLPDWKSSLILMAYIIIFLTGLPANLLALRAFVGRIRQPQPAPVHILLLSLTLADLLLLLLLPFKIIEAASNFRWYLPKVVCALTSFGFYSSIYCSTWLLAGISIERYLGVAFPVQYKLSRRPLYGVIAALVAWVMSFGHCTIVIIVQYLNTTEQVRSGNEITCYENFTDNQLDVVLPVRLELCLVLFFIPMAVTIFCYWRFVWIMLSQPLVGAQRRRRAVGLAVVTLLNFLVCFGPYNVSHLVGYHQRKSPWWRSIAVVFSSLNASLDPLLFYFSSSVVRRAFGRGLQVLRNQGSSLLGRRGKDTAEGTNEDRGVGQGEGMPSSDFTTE
Protocol: According to the method mentioned in (1) of Example 20, the GPR43 gene was prepared by PCR and the gene was inserted in an expression vector pAGal9-d to construct pAGal9-GPR43 which is an inducible expression plasmid of GPR43. With regard to a template, human chromosomal DNA (100 ng; manufactured by Clontech) was used. With regard to the GPR43 gene-specific primers, synthetic DNA having sequences mentioned in SEQ ID NOS: 181 and 182, respectively, were used. A HindIII site and a NotI site were introduced to the above primers, respectively.
PCR-amplified fragment was cleaved with HindIII and NotI to prepare a HindIII-NotI fragment. A plasmid pAGal9-d was cleaved with HindIII and NotI to prepare a HindIII-NotI fragment.
According to the method mentioned in (1) of Example 21, pAGal9-GPR43 was transfected to GBCRC6 to prepare stable transformants.

GPR41 = molecular target: T3, GPR41 (Homo sapiens, UniProt O14843); test: Screening of ligands or agonists of GPR41 (pAGal9-GPR41 in GBCRC6, Renilla luciferase); format: cell-based; settings: for induction ratio of the reporters (agonist for GPR41): 100 μmol/L, 6 hours
T3 construct: expressed in transfected cells; host or cells: GBCRC6 (Namalwa KJM-1 derived)
T3 sequence (O14843 1-346): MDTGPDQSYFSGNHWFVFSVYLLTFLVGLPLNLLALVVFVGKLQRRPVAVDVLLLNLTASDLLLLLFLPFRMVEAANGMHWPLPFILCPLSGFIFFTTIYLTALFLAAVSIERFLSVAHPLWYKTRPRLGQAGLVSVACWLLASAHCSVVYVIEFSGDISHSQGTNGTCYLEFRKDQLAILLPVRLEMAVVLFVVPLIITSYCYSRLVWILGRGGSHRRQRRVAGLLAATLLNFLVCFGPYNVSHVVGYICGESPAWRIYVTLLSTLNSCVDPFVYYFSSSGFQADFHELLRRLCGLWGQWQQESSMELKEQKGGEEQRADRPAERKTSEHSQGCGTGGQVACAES
Protocol: With regard to a template, human chromosomal DNA (100 ng; manufactured by Clontech) was used. With regard to the GPR41 gene-specific primers, synthetic DNAs having sequences mentioned in SEQ ID NOS: 183 and 184, respectively, were used. To the above primers, a HindIII site and a NotI site were introduced, respectively. A PCR-amplified fragment was cleaved with HindIII and NotI to prepare a HindIII-NotI fragment. A plasmid […] was cleaved with HindIII and NotI to prepare a HindIII-NotI fragment. The HindIII-NotI fragment derived from PCR fragment and the HindIII-NotI fragment derived from […] were ligated to construct pAGal9-GPR41 which was an inducible expression plasmid of GPR41.

other GPCRs = test: Specificity: assay cells to which other GPCRs were transfected; format: cell-based
CRE reporter in KJMGER8 = test: Constitutive activity of GPCR, Method 5 (KJMGER8 co-transfected with pACREpluc, firefly luciferase); format: cell-based, human; settings: 17β-estradiol 10 nmol/L, 1 day, activity with divided by activity without, control plasmid about 1
Protocol: After the cultivation, firefly luciferase activity was measured. […] It is judged that the higher the induction ratio of the cells to which a GPCR expression plasmid was transfected, the stronger the constitutive activity of the GPCR.

G10d = molecular target: T4, G10d (Homo sapiens, UniProt O15218); test: Screening of ligands or agonists of G10d (pAGal9-G10d in GBCRC6, Renilla luciferase); format: cell-based; settings: 6 hours
T4 construct: expressed in transfected cells; host or cells: GBCRC6 (Namalwa KJM-1 derived)
T4 sequence (O15218 whole entry): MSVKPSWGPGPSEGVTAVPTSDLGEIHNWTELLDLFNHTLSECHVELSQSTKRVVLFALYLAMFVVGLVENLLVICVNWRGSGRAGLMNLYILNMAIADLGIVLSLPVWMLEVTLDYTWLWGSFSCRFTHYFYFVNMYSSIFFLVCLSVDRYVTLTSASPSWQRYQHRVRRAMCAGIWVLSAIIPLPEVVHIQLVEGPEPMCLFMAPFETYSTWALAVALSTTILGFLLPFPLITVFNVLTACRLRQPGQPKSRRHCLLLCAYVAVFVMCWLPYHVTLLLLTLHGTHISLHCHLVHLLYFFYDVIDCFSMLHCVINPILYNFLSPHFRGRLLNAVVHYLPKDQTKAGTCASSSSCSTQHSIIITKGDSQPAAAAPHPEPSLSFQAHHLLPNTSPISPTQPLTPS
Protocol: According to the method mentioned in (1) of Example 20, the G10d gene was prepared by PCR and the gene was inserted in an expression vector pAGal9-d to construct pAGal9-G10d which is an inducible expression plasmid of G10d. With regard to a template, single-stranded DNAs derived from human spleen were used. With regard to the G10d gene-specific primers, synthetic DNAs having sequences mentioned in SEQ ID NOS: 185 and 186 were used. To the above primers, a HindIII site and a NotI site were introduced, respectively.
A PCR-amplified fragment was cleaved with HindIII and NotI to prepare a HindIII-NotI fragment. A plasmid pAGal9-d was cleaved with HindIII and NotI to prepare a HindIII-NotI fragment.
(§1) According to the method mentioned in (1) of Example 21, pAGal9-G10d was transfected to GBCRC6 to prepare stable transformants. […] It is possible to screen an antagonist for G10d using α-MSH or ACTH as an agonist.

[2] = tested on: GBCRC6 to which control vector (pAGal9-d) was transfected; test: Control: GBCRC6 to which control vector (pAGal9-d) was transfected; format: cell-based, human
Source text: as §1

GPR12 = test: Host clone selection: inducible expression of GPR12 (pAGal9-GPR12) by 17β-estradiol, CRE-luciferase readout; format: cell-based; settings: 24 hours; for rising rate of luciferase activity upon addition of 17β-estradiol: 10 nmol/L, firefly luciferase
Protocol: To the 8 clones was transfected pAGal9-GPR12 [a plasmid for inducible expression of GPR12 which is a constitutively activated G-protein coupled receptor: refer to Example 22 which will be mentioned later] by the above electroporation method using 4 μg to 6×10^6 cells to prepare transformants.
pAGal9-GPR12 was transfected to the 2 clones to prepare stable transformants.

gene expression via CRE = test: CRE-luciferase reporter stimulation in Namalwa KJM-1 / KJMGER8 cells carrying pACREpluc or pACRERluc; format: cell-based, human
Protocol: A reporter plasmid pACREpluc was dissolved in a TE buffer so as to make 1 μg/μl and the plasmid was transfected to Namalwa KJM-1 cells by an electroporation method [Cytotechnology, 3, 133 (1990)] using 4 μg to 6×10^6 cells to give transformants.
The transformants were subcultured in RPMI 1640-ITPSG medium containing hygromycin B (300 μg/ml).
In order to confirm whether gene expression via CRE took place, the transformants were stimulated under the following condition using 5′-N-ethylcarboxamide adenosine (NECA: manufactured by Sigma) which is an agonist of type 2a adenosine receptor (A2a), forskolin (manufactured by Sigma) which is an activator for adenylate cyclase or A23187 (manufactured by Research Biochemicals International) which is a calcium ionophore.
Thus, the above stable transformants were dispensed in an amount of 1×10^5 cells per well of a 48-well plate, then NECA (final concentration 100 nmol/L), forskolin (final concentration 100 μmol/L) or A23187 (final concentration 10 μmol/L) was added and stimulation was conducted by incubating in a CO2 incubator for 5 hours.
Accordingly, when the cells are stimulated by any substance, it is believed to be preferred to measure the activity after 6 hours from the stimulation.
After the incubation, firefly luciferase activity in each well was measured using the method mentioned in (4) of Example 18. With regard to a device for the measurement, Micro Lumat LB96P (manufactured by Berthold) was used. Seventeen clones having high activity were selected.
The 17 clones were used, stimulation with NECA was applied by the same manner as in the above (2), comparison with the case where no stimulation with NECA was conducted and 8 clones where luciferase activity rose to an extent of 60-fold or more were selected. Such 8 clones were named GBC1 to GBC8 respectively.
After that, coelenterazine h (Molecular Probes) (final concentration 250 nmol/L) was added to measure the activity of Renilla reniformis luciferase. For the measurement of the activity, a Wallac 1420 ARVOsx Multilable Counter (manufactured by Wallac Berthold Japan) was used. Nine clones having high activity were selected. The 9 clones were named GBCR1 to GBCR9, respectively.
With regard to the 9 clones, stimulation with NECA was conducted and, as compared with the case no stimulation with NECA was done, 2 clones where the activity of Renilla reniformis luciferase increased to an extent of not less than 18-fold were selected. The 2 clones were named GBCR1 and GBCR2, respectively.

In the case of “human PAMP-12: peptide consisting of the 9th to 20th amino acid residues from N terminal of PAMP (FRKKWNKWALSR; ends and bridges not checked; UniProt P35318 30-41, looked up, fragment)”, the “concentration at which MC1R reacts (Renilla luciferase reporter)” value [1] is reported as “very low concentration”.
With CC(=O)O [acetic acid] the “induction ratio of the reporter (agonist for GPR43)” value (GPR43) was 4 fold, the “agonist activity to GPR41” value (GPR41) was “did not show an agonist activity” and the “action on assay cells to which other GPCRs were transfected” value (other GPCRs) was “did not act”.
For GPR 26, the “Constitutive Activity (induction ratio)” value (CRE reporter in KJMGER8) was 26-fold.
CCC(=O)O [propionic acid] was tested, and the “induction ratio of the reporter (agonist for GPR43)” value (GPR43) was 5 fold and the “induction ratio of the reporters (agonist for GPR41)” value (GPR41) was 21 fold.
“ACTH: adrenocorticotropic hormone (SYSMEHFRWGKPVGKKRRPVKVYPNGAEDESAEAFPLEF)” was tested, and the “induction ratio of the reporters (agonist for G10d)” value (G10d; 100 nmol/L of ACTH) was 11 fold and the “action on GBCRC6 to which control vector (pAGal9-d) was transfected” value [2] was “did not act”.
With CC(=O)O [acetate] the “induction ratio of the reporter (agonist for GPR43)” value (GPR43) was 9 fold.
In the case of O=C(O)C1CC1 [cyclopropanecarboxylic acid], the “induction ratio of the reporters (agonist for GPR41)” value (GPR41) is reported as 22 fold and the “action on assay cells to which other GPCRs were transfected” value (other GPCRs) is reported as “did not act”.
α-MSH: α-melanocyte-stimulating hormone was tested, and the “induction ratio of the reporters (agonist for G10d)” value (G10d; 100 μmol/L of α-MSH) was 10 fold and the “action on GBCRC6 to which control vector (pAGal9-d) was transfected” value [2] was “did not act”.
C[C@]12CC[C@@H]3c4ccc(O)cc4CC[C@H]3[C@@H]1CC[C@@H]2O [17β-estradiol] was tested, and the “rising rate of luciferase activity upon addition of 17β-estradiol” value (shortened to “rising rate … of 17β-estradiol”) (GPR12; GBC5 with pAGal9-GPR12) was 56 fold, the “rising rate … of 17β-estradiol” value (GPR12; GBC6 with pAGal9-GPR12) was 193 fold and the “rising rate … of 17β-estradiol” value (GPR12; GBC7 with pAGal9-GPR12) was 364 fold. For the same molecule, the “rising rate of Renilla reniformis luciferase activity when 17β-estradiol was added” value (GPR12; GBCR2 with pAGal9-GPR12) was 364 fold.
For CCNC(=O)[C@H]1O[C@@H](n2cnc3c(N)ncnc32)[C@H](O)[C@@H]1O [NECA, 5′-N-ethylcarboxamide adenosine], the “increase of Renilla reniformis luciferase activity versus no stimulation” value (gene expression via CRE; 2 clones GBCR1 and GBCR2 (KJMGER8 with integrated pACRERluc), NECA 100 nmol/L) was “not less than 18 fold”, the “rise of firefly luciferase activity versus no stimulation” value (gene expression via CRE; 8 clones GBC1 to GBC8 (KJMGER8 with integrated pACREpluc), NECA stimulation) was at least 60 fold and the “increase of firefly luciferase activity” value (gene expression via CRE; Namalwa KJM-1 with pACREpluc, NECA 100 nmol/L, 5 hours) was “about 7 fold”. The “firefly luciferase activity after 24 hours” value (gene expression via CRE; Namalwa KJM-1 with pACREpluc, compared with highest activity at 6 hours) was “decreased to an extent of nearly one half” and the “time after stimulation at which firefly luciferase activity was highest” value (gene expression via CRE; Namalwa KJM-1 with pACREpluc, measured after 6, 24, 48, 72 and 96 hours) was 6 h.
CNc1ccc2oc(C[C@H]3O[C@@]4(CC[C@H]3C)O[C@H]([C@H](C)C(=O)c3ccc[nH]3)[C@H](C)C[C@H]4C)nc2c1C(=O)O [A23187] was tested, and the “change of firefly luciferase activity” value (gene expression via CRE; Namalwa KJM-1 with pACREpluc, A23187 10 μmol/L, 5 hours) was “rarely changed”.
In the case of C=C[C@@]1(C)CC(=O)[C@]2(O)[C@@]3(C)[C@@H](O)CCC(C)(C)[C@@H]3[C@H](O)[C@H](OC(C)=O)[C@@]2(C)O1 [forskolin], the “increase of firefly luciferase activity” value (gene expression via CRE; Namalwa KJM-1 with pACREpluc, forskolin 100 μmol/L, 5 hours) is reported as “about 10 fold”.
In the case of GPR 3, the “Constitutive Activity (induction ratio)” value (CRE reporter in KJMGER8) is reported as 6.5-fold.
“human PAMP: peptide comprising 20 amino acids excised from a precursor protein of adrenomedullin (ARLDVASEFRKKWNKWALSR; ends and bridges not checked; UniProt P35318 22-41, looked up)” was tested, and the “concentration at which MC1R reacts (Renilla luciferase reporter)” value [1] was “very low concentration”.
